The supplement of paper PMC10307832

Columns and labels:
Assay in all cases: relative viability (nuclei count vs DMSO), 5 days (fraction); higher = more cells survive
[1] = compound: C1=CC(=CC=C1NC(=S)NNC2=C(C=C(C=C2[N+](=O)[O-])C(F)(F)F)[N+](=O)[O-])F [Kobe2602]
Summary of the method: (§1)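 Five library-drug doses spaced by √10 were pinned onto vehicle-anchored 1536-well plates of lung cancer cell lines that had been kept overnight at 37 °C. Cells went 5 days without medium change, then were fixed, permeabilised and Hoechst-stained together, imaged at 4× and counted by MetaXpress. Viability is the ratio of treated-well to vehicle-well nuclei, taken as a median over plates. Plates required control CV below 25% and at least one doubling.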

[2] = compound: COc1cc2nccc(Oc3ccc(NC(=O)C4(C(=O)Nc5ccc(F)cc5)CC4)cc3)c2cc1OC [Cabozantinib]
Summary of the method: as §1

[3] = compound: O[C@@H](COc1cccc2ncccc12)CN1CCN([C@@H]2c3ccccc3[C@@H]3[C@H](c4ccccc42)C3(F)F)CC1 [Zosuquidar]
Summary of the method: as §1

[4] = compound: COc1cc2nccc(Oc3ccc(NC(=O)C4(C(=O)Nc5ccc(F)cc5)CC4)cc3)c2cc1OC [Cabozantinib] + Cc1nc(Nc2ncc(C(=O)Nc3c(C)cccc3Cl)s2)cc(N2CCN(CCO)CC2)n1 [Dasatinib] (partner 0.075 µM)
Summary of the method: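 Lung cancer cell lines were pin-tool dosed in 1536-well plates on the day after seeding, with either a lone drug or a fixed anchor-drug dose plus five library-drug doses (not always all listed) in √10 steps. Nuclei were counted on 4× images after 5 days. Relative viability is the ratio of treated-well to vehicle-well nuclei counts, with each value a median of duplicate plates.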

Row | Cell Line | relative viability ([1]; 0.2 µM) | relative viability ([1]; 0.6325 µM) | relative viability ([1]; 2 µM) | relative viability ([1]; 6.325 µM) | relative viability ([1]; 20 µM) | relative viability ([2]; 0.02 µM) | relative viability ([2]; 0.06325 µM) | relative viability ([2]; 0.2 µM) | relative viability ([2]; 0.6325 µM) | relative viability ([2]; 2 µM) | relative viability ([3]; 0.01 µM) | relative viability ([3]; 0.03162 µM) | relative viability ([3]; 0.1 µM) | relative viability ([3]; 0.3162 µM) | relative viability ([3]; 1 µM) | relative viability ([4]; first compound 0.02 µM) | relative viability ([4]; first compound 0.06325 µM) | relative viability ([4]; first compound 0.2 µM) | relative viability ([4]; first compound 0.6325 µM) | relative viability ([4]; first compound 2 µM)
1 | 201T | 1 | 1.01 | 0.946 | 0.997 | 0.963 | 0.868 | 1.1 | 0.967 | 1 | 0.965 | 0.947 | 0.979 | 0.883 | 0.985 | 0.982 | 0.385 | 0.549 | 0.573 | 0.534 | 0.545
2 | A549 | 0.946 | 0.965 | 0.975 | 0.929 | 0.97 | 0.981 | 1.01 | 0.991 | 0.941 | 0.907 | 0.895 | 0.802 | 0.935 | 1.09 | 0.98 | – | – | – | – | –
3 | A-427 | 1.03 | 1.12 | 0.962 | 1.04 | 1.06 | 0.996 | 1.01 | 1.02 | 0.972 | 0.98 | 1.02 | 1.01 | 0.801 | 1.14 | 0.96 | 0.81 | 0.705 | 0.695 | 0.706 | 0.795
4 | ABC-1 | 0.941 | 1.1 | 0.769 | 1.06 | 1.04 | 0.902 | 1.05 | 0.993 | 0.875 | 0.887 | 0.926 | 0.841 | 1.04 | 0.986 | 0.911 | 0.515 | 0.567 | 0.596 | 0.55 | 0.525
5 | BEN | 1.14 | 1.02 | 0.925 | 0.981 | 1.01 | 0.918 | 1.11 | 1 | 0.95 | 0.808 | 0.994 | 0.876 | 0.801 | 0.938 | 0.977 | 0.294 | 0.391 | 0.313 | 0.318 | 0.232
6 | CAL-12T | 0.965 | 1.06 | 0.896 | 0.997 | 0.957 | 1.04 | 1.14 | 1.01 | 0.982 | 1.01 | 1.07 | 1.16 | 0.923 | 1.2 | 0.932 | 0.324 | 0.341 | 0.354 | 0.327 | 0.221
7 | COR-L23 | 0.95 | 1.06 | 1.09 | 1.09 | 0.95 | 1.11 | 1.04 | 0.993 | 1 | 1.07 | 1.06 | 1.11 | 1.02 | 1.1 | 1.06 | 0.537 | 0.425 | 0.466 | 0.452 | 0.36
8 | COR-L 105 | 0.899 | 1.06 | 0.858 | 0.985 | 0.914 | 0.844 | 0.991 | – | 0.888 | 0.857 | 0.955 | 0.841 | 0.796 | 1.04 | 0.905 | 0.352 | 0.283 | – | 0.314 | 0.314
